Six molecules from US20260191200A1, “COMPOUNDS AND COMPOSITIONS HAVING KNOCK-DOWN OR BLOOD FEED INHIBITION ACTIVITY AGAINST INSECT PESTS” (priority 2015, published 2026) can be followed below.

Holding throughout (assay type): in vivo
Data set [1] concerns Anopheles stephensi. Nature of the data set: six well tissue culture plate deposit test, knockdown and mortality (Examples B1-B10). The following applies: for 24 hr mort / 48 hr mort / KD: Table B4, alone or +Comp. (1.3); for KD: knockdown after 1 hour; for knockdown after 1 hour: Alone or Plus Compound (1.3). As to the method:
The individual wells of six (6) well tissue culture plates were treated with 250 μl of an ethanol solution containing a test compound at a defined concentration. Once the deposits were dry, ten non-blood fed adult female Anopheles stephensi (between two to five day old) were added to each well, and sustained with a 10% sucrose solution in a cotton wool plug. Assessment of the knockdown after 1 hour (Tables B1-B10), and mortality after 24 and 48 hours (Tables B1-B4) was carried out.
In case of multiple tests, the mean value is reported.

Data set [2] concerns Anopheles stephensi. Nature of the data set: WHOPES tunnel test with Hemotek membrane feeding device (B11-B14). The procedure:
(§1) The following tests are based on the “WHOPES tunnel tests” (described at http://apps.who.int/iris/bitstream/10665/80270/1/9789241505277_eng.pdf)
(§2) For examples B11-B15 the WHOPES tunnel test procedure was followed, except that live guniea pig baits were replaced with a Hemotek membrane feeding device, filled with blood and kept constant at 37° C. to mimic a human host.
For examples B11-B14, the tunnel test was conducted with Anopheles stephensi;
(§3) All tests were done under standardised laboratory controlled conditions (27° C.+2° C. under subdued light). The tunnel apparatus was a 60×30×30 cm glass case open at each end and the floor was lined with wet blue roll in order to maintain humidity. A 30×30×30 cm cage, covered in untreated netting, was placed at the release end. The test nets were cut to 25×25 cm squares and fitted into cardboard frames that allow a 20×20 cm area to be exposed. Nine holes, 1 cm in diameter, were made in the netting in the pattern specified in the WHOPES test. The frames were then fitted into the tunnel one third of the way down its length. A Hemotek device, filled with blood and kept constant at 37° C. to mimic a human host, was placed in the smaller area of the glass tunnel behind the test netting, and the end of the tunnel closed with a netting screen. A human sat at the Hemotek end of the tunnels for the duration of the test. At the start of the test, 100 female mosquitoes (non-blood fed, aged 5-8 days) were introduced into the cage. Mosquitoes are free to fly in the tunnel but have to make contact with the piece of netting and locate the holes in it before passing through to reach the bait.
(§4) After 7 hours the mosquitoes were counted in each section of the tunnel. The number of mosquitoes knocked down and blood fed were recorded. Blood-feeding inhibition was assessed by comparing the proportion of blood-fed females (alive or dead) in treated and control tests. Four tunnels were run simultaneously each day, with one control containing untreated netting included with all runs. Three replicates were carried out per treatment. In case of multiple tests, the mean value is reported.

The test system of data set [3] is Anopheles gambiae, resistant strain AKRON. Nature of the data set: WHOPES tunnel test with Hemotek membrane feeding device (B15). The following applies: Table B15. As to the method: as §1, §2
For example B15, the tunnel test was conducted with Anopheles gambiae, resistant strain AKRON.
(§5) The commercial standard Olyset nets used in certain examples are 2% w/w permethrin (approx. 1000 mg/m2, although not all of that is available on the surface at any one time, as a good proportion is in the polymer).
All tests were done under standardised laboratory controlled conditions (27° C.+2° C. under subdued light). The tunnel apparatus was a 60×30×30 cm glass case open at each end and the floor was lined with wet blue roll in order to maintain humidity. A 30×30×30 cm cage, covered in untreated netting, was placed at the release end. The test nets were cut to 25×25 cm squares and fitted into cardboard frames that allow a 20×20 cm area to be exposed. […]
After 7 hours the mosquitoes were counted in each section of the tunnel. The number of mosquitoes knocked down and blood fed were recorded. Blood-feeding inhibition was assessed by comparing the proportion of blood-fed females (alive or dead) in treated and control tests. […]

Data set [4] has as its system Anopheles gambiae Kisumu. Nature of the data set: WHOPES tunnel test with live guinea pig baits, Burkina Faso (B16). The following applies: Table B16; for Blood fed: number of mosquitoes. As to the method:
as §1
(§6) For examples B16-B20, the WHOPES tunnel test procedure was followed with live guniea pig baits wherein B16-B18 were conduced in Burkina Faso with Anopheles gambiae Kisumu, Anopheles coluzzii VK7 lab strain and Anopheles gambiae s.l. VK field strain, respectively; and B19-B20 were conducted in Cote d′Ivoire with Anopheles gambiae Kisumu and Anopheles gambiae Tiassale field strain, respectively.
as §5, §3, §4

Data set [5] has as its system Anopheles coluzzii VK7 lab strain. Nature of the data set: WHOPES tunnel test with live guinea pig baits, Burkina Faso (B17). The note with it: Table B17; for Blood fed: number of mosquitoes. As to the method: as §1, §6, §5, §3, §4
In data set [6] the test system is Anopheles gambiae s.l. VK field strain. Nature of the data set: WHOPES tunnel test with live guinea pig baits, Burkina Faso (B18). The note with it: Table B18; for Blood fed: number of mosquitoes. The procedure:
as §1, §6, §5, §3, §4

Data set [7] has as its system Anopheles gambiae Kisumu. Nature of the data set: WHOPES tunnel test with live guinea pig baits, Cote d′Ivoire (B19). The following applies: Table B19; for Blood fed: number of mosquitoes. As to the method:
as §1, §6, §5, §3, §4

For data set [8], the system named is Anopheles gambiae Tiassale field strain. Nature of the data set: WHOPES tunnel test with live guinea pig baits, Cote d′Ivoire (B20). The note with it: Table B20; for Blood fed: number of mosquitoes. The procedure:
as §1, §6, §5, §3, §4

Data set [9] deals with Aedes aegypti. Nature of the data set: twelve well tissue culture plate deposit test, knockdown (B23). The note with it: 1 h, read-out: Aedes aegypti 1 hour % KD. The procedure:
(§7) The individual wells of a twelve (12) well tissue culture plates were treated with 100 μl of an ethanol solution containing a test compound at a defined concentration. Once the deposits were dry, five non-blood fed adult female Aedes aegypti or Anopheles stephensi (between two to five day old) were added to each well, and sustained with a 10% sucrose solution in a cotton wool plug. Assessment of the knockdown after 1 hour was carried out. Where multiple replicates of a treatment have been undertaken, the mean of those replicates is reported.

For data set [10], the system named is Anopheles stephensi. The description is as above. The note with it: 1 h, read-out: Anopheles stephensi 1 hour % KD. The procedure:
as §7

Data set [11] relates to non-blood fed adult female mosquitoes. Nature of the data set: Bottle assay based on the CDC bottle assay (B21, B22). The following applies: Table B21; rate not given. As to the method:
Based on the “CDC bottle assay” (described at http://www.cdc.gov/malaria/resources/pdf/fsp/ir_manual/ir_cdc_bioassay_en.pdf) 1 ml of ethanol containing a test compound at a defined concentration was added to a 250 ml glass bottle and the bottles were placed on a rolling table to coat the inner surfaces as the solvent evaporated. Once dry, twenty five non-blood fed adult female mosquitoes of the appropriate species and strains (each three day old) were aspirated from the stock culture and gently blown into the exposure bottles. The lid of the bottle was replaced and the bottle placed upright out of direct sun light under standard culture conditions, nominally 28° C. and 60-80% relative humidity.
A stopwatch was started, and the assessment of the knock-down were made after 15 mins and 60 minutes. A mosquito was said to be knocked down if it was unable to stand, following the CDC definition. The bottles were replaced in an upright position when not being assessed.
After one hour the mosquitoes were carefully removed from the bottle with an aspirator and placed in a recovery cup. The mosquitoes were supplied with a 10% sucrose solution on a cotton wool bung, and stored under culture conditions. Assessments of the mortality were made after 24 hours and 48 hours (B21).
Each treatment was replicated a minimum of four times, with the mean knockdown or mortality recorded. In each study, a set of bottles was infested with a known insecticide susceptible strain of mosquitoes from the same genera as the resistant strains.

The mark [12] stands for this setting: Table B12, Deltamethrin 5 mg/m2.

Consider `COC(=O)N(C(=O)N1CO[C@@]2(C(=O)OC)Cc3cc(Cl)ccc3C2=N1)c1ccc(OC(F)(F)F)cc1` [Indoxacarb], for which the 24 hr mort in data set [1] (Rate 12.5 ppm), in [1] (Rate 25 ppm), in data set [1] (Rate 50 ppm) and in data set [1] (Rate 100 ppm) was 0.0 in each case. The 48 hr mort in [1] (Rate 12.5 ppm), in data set [1] (Rate 25 ppm), in [1] (Rate 50 ppm) and in [1] (Rate 100 ppm) was 0.0 in each case. Besides, the KD in [1] (Rate 12.5 ppm), in [1] (Rate 25 ppm), in [1] (Rate 50 ppm) and in [1] (Rate 100 ppm) was 0.0 in each case. Besides, the “knockdown after 1 hour” value in [1] (Table B7, Rate 25 ppm) came out at 0; in data set [1] (Table B7, Rate 50 ppm), 0; in data set [1] (Table B7, Rate 100 ppm) it was 0; in data set [1] (Table B7, Rate 200 ppm), 0. Besides, in data set [2] (Table B14, Indoxacarb 20 mg/m2), the “% 24 hour mortality” value is given as 7.6%. Besides, the “% Blood fed” value in data set [3] (Indoxacarb 200 mg/m2) is recorded as 4.4%.

For the molecule `CC1(C)[C@H](C(=O)O[C@H](C#N)c2cccc(Oc3ccccc3)c2)[C@@H]1C=C(Br)Br` [Deltamethrin], in data set [2] (setting [12]), the “% 1 hour KD” value was determined as 0% and the “% Blood fed” value was determined as 0%.

For the molecule `NC(=O)c1cnccc1C(F)(F)F` [Compound 1.3], the “% Blood fed” value is on record as 3% in data set [2] (Table B11, treated net, Rate 10 mg/m2); 0.3% in [3] (Compound (1.3) 25 mg/m2); 1.5% in [4] (50 mg/m2); 0.3% in data set [4] (200 mg/m2); 3.3% in data set [5] (50 mg/m2); 1.5% in data set [5] (200 mg/m2). Moreover, the “% Blood fed” value in data set [6] (50 mg/m2) is given as 1.3%; in [6] (200 mg/m2) it was 1.8%; in data set [7] (50 mg/m2), 25.0%; in data set [7] (200 mg/m2) it was 23.1%; in data set [8] (50 mg/m2), 24.5%; in data set [8] (200 mg/m2) it was 3.3%. The Blood fed in [4] (50 mg/m2) is 5; in [4] (200 mg/m2) it was 1; in data set [5] (50 mg/m2), 10; in data set [5] (200 mg/m2), 6; in data set [6] (50 mg/m2) it was 4; in data set [6] (200 mg/m2), 6. Moreover, the Blood fed in data set [7] (50 mg/m2) is 70; in [7] (200 mg/m2) it was 74; in data set [8] (50 mg/m2) it was 66; in [8] (200 mg/m2) it was 10.

Regarding `FC(F)(F)c1ccncc1-c1noc(-c2cccc(Cl)c2)n1` [Compound 1.1], the pest or weed control at 0.2 ppm in data set [9] (Rate 0.2 PPM) is 100%; in [10] (Rate 0.2 PPM), 40%. Also, the pest or weed control at 2 ppm in [9] (Rate 2 PPM) and in data set [10] (Rate 2 PPM) was 100% each time. The pest or weed control at 20 ppm in [9] (Rate 20 PPM) and in [10] (Rate 20 PPM) was 100% throughout. The pest or weed control at 200 ppm in data set [9] (Rate 200 PPM) and in [10] (Rate 200 PPM) was 100% each time.

Turning to `N#CCNC(=O)c1cnccc1C(F)(F)F` [Flonicamid], in [11], the “24 hour % mort” value amounted to 0%, the “48 hour % mort” value is reported as 0% and the “% 1 hour KD” value was determined as 0%.

As for `CCN(CC)c1nc(C)cc(OP(=S)(OC)OC)n1` [pirimiphos-methyl], the “knockdown after 1 hour” value in data set [1] (Table B10, Rate 0.0625 ppm) is given as 0.0; in [1] (Table B10, Rate 0.125 ppm), 0.0.
